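How tested: cells in 96-well plates exposed to compound for 48 hours at five concentrations. GI50 = concentration required for 50% inhibition of growth.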 Calls of active or inactive are those of the source. No stated cut-off is given here; in the data, active = GI50 up to about 1.1 µM and inactive = higher. Square brackets hold non-standard residues; d marks the D form. Peptide text beside a SMILES is read from it. * marks the point of attachment. ξ: configuration not given here. NMeN = CN[C@@H](CC(N)=O)C(=O)O; NMeV = CN[C@H](C(=O)O)C(C)C; ξNMeV = CNC(C(=O)O)C(C)C; Boc = CC(C)(C)OC(=O)*; ξNMeA = CNC(C)C(=O)O
Experiments:
Experiment in all cases: NCI-60 cell line screen, 48 h
[1] = test system: DMS-273
[2] = test system: DLD-1
[3] = test system: M19-MEL
[4] = test system: SNB-78
[5] = test system: LXFL 529
[6] = test system: HOP-18
[7] = test system: KM-20L2
[8] = test system: XF498
[9] = test system: RXF 631

| Structure (SMILES) | GI50 [1] | GI50 [2] | GI50 [3] | GI50 [4] | GI50 [5] | GI50 [6] | GI50 [7] | GI50 [8] | GI50 [9] |
| --- | --- | --- | --- | --- | --- | --- | --- | --- | --- |
| COc1ccc2c([nH]c3c(O)c(-c4c(C)cc5c([nH]c6c(CC=C(C)C)c(OC)ccc65)c4O)c(C)cc32)c1CC=C(C)C [BISMURRAYAFOLINE B] | > 100 µM (inactive) | > 100 µM (inactive) | > 100 µM (inactive) | > 100 µM (inactive) | > 100 µM (inactive) | > 100 µM (inactive) | > 100 µM (inactive) | – | – |
| COC(=O)C(C)N(C)C(=O)[C@H](CC(N)=O)N(C)C(=O)[C@@H]1CCCN1C(=O)[C@H](C(C)C)N(C)C(=O)C(C(C)C)N(C)C(=O)[C@@H](NC(=O)OC(C)(C)C)C(C)C (some centres undefined) (Boc-V[ξNMeV][NMeV]P[NMeN][ξNMeA]-OMe) | 42.1 µM (inactive) | 37 µM (inactive) | > 100 µM (inactive) | > 100 µM (inactive) | > 100 µM (inactive) | > 100 µM (inactive) | > 100 µM (inactive) | > 100 µM (inactive) | – |
| O=C1C=C(Nc2ccccc2C(=O)CC(=O)C(=O)Nc2ccc(Cl)c(Cl)c2)c2ccccc2C1=O | – | 19.7 µM (inactive) | 3.98 µM (inactive) | 5.31 µM (inactive) | – | – | – | – | – |
| COc1cc(C(C)c2cc3c(cc2OCCCCOc2cc4c(cc2C(C)c2cc(OC)c(OC)c(OC)c2)OCO4)OCO3)cc(OC)c1OC (centres undefined) | – | 35.6 µM (inactive) | 38.4 µM (inactive) | 20.1 µM (inactive) | 33.3 µM (inactive) | – | > 100 µM (inactive) | 27.6 µM (inactive) | 39.7 µM (inactive) |
| CCC1=NC(CO)[C@H](c2ccccc2)O1 (some centres undefined) | > 100 µM (inactive) | > 100 µM (inactive) | > 100 µM (inactive) | > 100 µM (inactive) | – | > 100 µM (inactive) | > 100 µM (inactive) | > 100 µM (inactive) | – |
| Oc1cc(-c2c[nH]c3ccccc23)nc2cc3c(cc12)OCO3 | > 100 µM (inactive) | > 100 µM (inactive) | > 100 µM (inactive) | – | > 100 µM (inactive) | – | > 100 µM (inactive) | 41.6 µM (inactive) | > 100 µM (inactive) |
| C/C(=N\N(C)C)C(CN1CCCCC1)C(c1ccccc1)c1c(O)c2ccccc2oc1=O (centres undefined) | > 100 µM (inactive) | > 100 µM (inactive) | > 100 µM (inactive) | > 100 µM (inactive) | > 100 µM (inactive) | > 100 µM (inactive) | > 100 µM (inactive) | 74.1 µM (inactive) | > 100 µM (inactive) |
| COc1cc(/C=C2\CCC(C)(CN(C)C)C2=O)cc(OC)c1OC (centres undefined) | > 100 µM (inactive) | > 89.1 µM (inactive) | > 100 µM (inactive) | > 44.7 µM (inactive) | > 100 µM (inactive) | > 100 µM (inactive) | > 64.9 µM (inactive) | > 100 µM (inactive) | – |
| CC(C)(C)C1CCC2(CC1)c1[nH]c3ccccc3c1C1(CCC(C(C)(C)C)CC1)c1[nH]c3ccccc3c12 (centres undefined) | > 100 µM (inactive) | > 100 µM (inactive) | > 100 µM (inactive) | > 100 µM (inactive) | > 100 µM (inactive) | > 100 µM (inactive) | > 100 µM (inactive) | > 100 µM (inactive) | – |
| C1=CC=C2NCCOCC/N=C3/C=CC=CC=C3NCCOCC/N=C\2C=C1 | > 100 µM (inactive) | > 100 µM (inactive) | > 100 µM (inactive) | > 100 µM (inactive) | 40.1 µM (inactive) | > 100 µM (inactive) | 21.6 µM (inactive) | – | 30 µM (inactive) |
| O=C(O)CP(=S)(S)c1ccccc1 (centres undefined) | > 100 µM (inactive) | > 100 µM (inactive) | > 100 µM (inactive) | > 100 µM (inactive) | > 100 µM (inactive) | – | > 10 µM (inactive) | > 100 µM (inactive) | – |
| CC1CC(c2ccc([N+](=O)[O-])cc2)=Nc2ccccc2S1 (centres undefined) | 20.2 µM (inactive) | 12.9 µM (inactive) | 13.8 µM (inactive) | 67.5 µM (inactive) | 13.3 µM (inactive) | > 100 µM (inactive) | 18.4 µM (inactive) | 31.6 µM (inactive) | – |
| CCCCCCCCCCCC(=O)OCC1OC(n2cc(F)c(=O)[nH]c2=O)C(N)C(O)C1O (centres undefined) | > 100 µM (inactive) | 71.8 µM (inactive) | > 100 µM (inactive) | > 100 µM (inactive) | > 100 µM (inactive) | 88.9 µM (inactive) | 91.4 µM (inactive) | – | – |
| COC(=O)C1=C(c2ccc(OC)c(OC)c2)OC(c2cc(OC)c(OC)c(OC)c2)C1 (centres undefined) | 18.7 µM (inactive) | 2.12 µM (inactive) | > 100 µM (inactive) | 22.8 µM (inactive) | 0.711 µM (active) | 61.7 µM (inactive) | > 100 µM (inactive) | 24.5 µM (inactive) | 94.2 µM (inactive) |
| C1CCN(C2OC3C(COC3N3CCCCC3)OC2OC2CCO[C@@H]2N2CCCCC2)CC1 (some centres undefined) | 32.1 µM (inactive) | 38.8 µM (inactive) | – | 8.26 µM (inactive) | 17.3 µM (inactive) | – | > 100 µM (inactive) | 15.8 µM (inactive) | – |
| O=C1C2Cc3ccccc3CN2C(=O)N1CN1CCN(CN2C(=O)C3Cc4ccccc4CN3C2=O)CC1 (centres undefined) | > 100 µM (inactive) | > 100 µM (inactive) | > 100 µM (inactive) | > 100 µM (inactive) | – | > 100 µM (inactive) | > 100 µM (inactive) | – | > 100 µM (inactive) |
| N#Cc1cccc(/C=N/C23CC4CC(CC(C4)C2)C3)c1 | > 100 µM (inactive) | – | > 100 µM (inactive) | > 100 µM (inactive) | – | – | > 100 µM (inactive) | – | – |
| Cc1ccc(NS(=O)(=O)c2cc(C(C)(C)C)ccc2OCCOCCOCCOc2ccc(C(C)(C)C)cc2S(=O)(=O)Nc2ccc(C)cc2)cc1 | > 100 µM (inactive) | > 100 µM (inactive) | > 100 µM (inactive) | > 100 µM (inactive) | – | > 100 µM (inactive) | – | – | – |
| CC1=C(C(=O)Nc2ccc([N+](=O)[O-])cc2)C(c2cccc([N+](=O)[O-])c2)C(C(=O)Nc2ccc([N+](=O)[O-])cc2)=C(C)N1 | – | 9.66 µM (inactive) | 23 µM (inactive) | > 100 µM (inactive) | 8.53 µM (inactive) | > 100 µM (inactive) | 16.6 µM (inactive) | 2.87 µM (inactive) | > 100 µM (inactive) |
| O=c1ccn(C2(CO)C=C(CO)C(O)C2O)c(=O)[nH]1 (centres undefined) | > 25.7 µM (inactive) | > 25.7 µM (inactive) | > 25.7 µM (inactive) | > 25.7 µM (inactive) | > 25.7 µM (inactive) | > 25.7 µM (inactive) | > 25.7 µM (inactive) | – | > 25.7 µM (inactive) |
| c1cc2c(cnc3cscc32)s1 | > 100 µM (inactive) | > 100 µM (inactive) | > 100 µM (inactive) | > 100 µM (inactive) | – | – | – | 11 µM (inactive) | > 100 µM (inactive) |
| CCOC(=O)C1=C(C)N(NC(=O)c2ccccc2)C2(O)CCCC12C(=O)OCC (centres undefined) | > 100 µM (inactive) | – | > 100 µM (inactive) | – | > 100 µM (inactive) | – | > 100 µM (inactive) | 55 µM (inactive) | > 100 µM (inactive) |
| COC(=O)C1=C(C)N(NC(N)=O)C2(N)N(NC(N)=O)C(C)=C(C(=O)OC)C12C#N (centres undefined) | > 100 µM (inactive) | > 100 µM (inactive) | > 100 µM (inactive) | > 100 µM (inactive) | – | > 100 µM (inactive) | > 100 µM (inactive) | > 100 µM (inactive) | > 100 µM (inactive) |
| COC12CC(O)=C(C(C)=O)C(=O)C1(C)c1c(OC(C)=O)c(C)c(O)c(C(C)=O)c1O2 (centres undefined) | – | – | 23.2 µM (inactive) | 27.7 µM (inactive) | 14.3 µM (inactive) | 5.11 µM (inactive) | 16.7 µM (inactive) | 14.8 µM (inactive) | 21.2 µM (inactive) |
| CCOC(=O)C(NC(=O)c1nc[nH]c1/N=N/N(C)C)C(C)C (centres undefined) | > 100 µM (inactive) | > 100 µM (inactive) | > 100 µM (inactive) | – | > 100 µM (inactive) | – | – | – | – |
| CON1C(=O)C2(CCCCC2)C(=O)C12C=CC(C)CC2 (centres undefined) | > 100 µM (inactive) | – | > 100 µM (inactive) | > 100 µM (inactive) | > 100 µM (inactive) | – | > 100 µM (inactive) | > 100 µM (inactive) | > 100 µM (inactive) |
| COc1ccc(S(=O)(=O)N/N=C/c2cc(I)cc([N+](=O)[O-])c2O)cc1OC | 35.2 µM (inactive) | 36.3 µM (inactive) | 33 µM (inactive) | 24.7 µM (inactive) | 27 µM (inactive) | 21.6 µM (inactive) | > 100 µM (inactive) | 24.1 µM (inactive) | 38.8 µM (inactive) |
| CN(C)C(=C1C(Br)=C(Br)C(Br)=C1Br)N(C)C | > 100 µM (inactive) | > 100 µM (inactive) | > 100 µM (inactive) | – | 75 µM (inactive) | > 100 µM (inactive) | > 100 µM (inactive) | – | – |
| CC1=NN(C(=O)Cc2ccccc2)C(=O)/C1=C\C=C\c1ccccc1 | > 100 µM (inactive) | > 100 µM (inactive) | – | 83.6 µM (inactive) | – | 14.8 µM (inactive) | – | > 100 µM (inactive) | – |
